In ChEMBL document CHEMBL1148005, “A cell-permeable inhibitor and activity-based probe for the caspase-like activity of the proteasome” (Bioorg Med Chem Lett, 2007):
Calls of active or inactive are those of the source. The rule behind the calls is not given here.

Experiments:
Assay type in all cases: tissue-based
Details in all cases: Muscle tissue
[1] = species on record: Oryctolagus cuniculus; assay: Inhibition of caspase-like activity of rabbit muscle 26S proteasome at 50 to 100 uM after 30 mins
[2] = species on record: Oryctolagus cuniculus; assay: Inhibition of trypsin-like activity of rabbit muscle 26S proteasome at 50 to 100 uM after 30 mins
[3] = species on record: Oryctolagus cuniculus; assay: Inhibition of caspase-like activity of rabbit muscle 26S proteasome at 10 to 20 uM after 30 mins
[4] = species on record: Oryctolagus cuniculus; assay: Inhibition of caspase-like activity of rabbit muscle 26S proteasome after 30 mins
[5] = species on record: Oryctolagus cuniculus; assay: Inhibition of chymotrypsin-like activity of rabbit muscle 26S proteasome upto 500 uM after 30 mins
[6] = species on record: Oryctolagus cuniculus; assay: Inhibition of trypsin-like activity of rabbit muscle 26S proteasome upto 500 uM after 30 mins

SMILES	Activity [1]	Activity [2]	inhibition [3] [%]	Activity [4]	Activity [5]	Activity [6]
CCCC[C@H](NC(=O)[C@@H]1CCCN1C(=O)[C@H](C)NC(C)=O)C(=O)N[C@H](/C=C/S(=O)(=O)c1ccc(O)cc1)CC(C)C	Active	Active	> 90	Active	inactive	inactive
CCCC[C@H](NC(=O)[C@@H]1CCCN1C(=O)[C@H](C)NC(=O)CN=[N+]=[N-])C(=O)N[C@H](/C=C/S(=O)(=O)c1ccc(O)cc1)CC(C)C				Active		
